Reference: patent US8912121B2, “Herbicidal compositions comprising 4-amino-3-chloro-5-fluoro-6-(4-chloro-2-fluoro-3-methoxyphenyl)pyridine-2-carboxylic acid or a derivative thereof and certain PS II inhibitors” (Dow Agrosciences LLC, priority 2012, dated 2014)

Columns and labels:
[1] = tested on: ECHCG (Echinochloa crus-galli, barnyardgrass); experiment: Pre-emergence soil-applied mixtures, greenhouse; format: in vivo, Echinochloa crus-galli (L.) P. Beauv.
From the text: (§1) Seeds or nutlets of the desired test plant species were planted in a soil matrix prepared by mixing a loam soil (32 percent silt, 23 percent clay, and 45 percent sand, with a pH of about 6.5 and an organic matter content of about 1.9 percent) and calcareous grit in an 80 to 20 ratio. The soil matrix was contained in plastic pots with a volume of 1 quart and a surface area of 83.6 square centimeters (cm^2).
(§2) Treatments consisted of the benzyl ester of 4-amino-3-chloro-5-fluoro-6-(4-chloro-2-fluoro-3-methoxy-phenyl)pyridine-2-carboxylic acid (compound A) formulated as an SC (suspension concentrate) and various herbicidal components alone and in combination. Forms of compound A were applied on an acid equivalent basis.
(§3) Other herbicidal components were applied on an acid equivalent or active ingredient basis and included the PSII-inhibiting herbicides, atrazine formulated as Atrazine® 90WDG, metribuzin formulated as Metribuzin 75DF, simazine formulated as Princep Caliber 90, tebuthiuron formulated as Spike 80DF, cyanazine (technical grade material), hexazinone (technical grade material), linuron (technical grade material), terbuthylazine (technical grade material), and diuron formulated as Diuron 4L.
(§4) Treatment requirements were calculated based upon the rates being tested, the concentration of active ingredient or acid equivalent in the formulation, and a 12 mL application volume at a rate of 187 L/ha.
For treatments comprised of formulated compounds, measured amounts of compounds were placed individually in 25 mL glass vials and diluted in a volume of 1.25% (v/v) Agri-Dex® crop oil concentrate (COC) to obtain 12× stock solutions. […] Application solutions were prepared by adding an appropriate amount of each stock solution (e.g., 1 mL) and diluted to the appropriate final concentrations with the addition of 10 mL of an aqueous mixture of 1.25% (v/v) COC so that the final spray solutions contained 1.25% (v/v) COC.
For treatments comprised of technical compounds, weighed amounts can be placed individually in 25 mL glass vials and dissolved in a volume of 97:3 (v/v) acetone/DMSO to obtain 12× stock solutions. […]
(§5) For treatments comprised of formulated and technical compounds, weighed amounts of the technical materials can be placed individually in 25 mL glass vials and dissolved in a volume of 97:3 (v/v) acetone/DMSO to obtain 12× stock solutions, and measured amounts of the formulated compounds can be placed individually in 25 mL glass vials and diluted in a volume of 1.5% (v/v) COC or water to obtain 12× stock solutions. […]

[2] = tested on: ECHCO (Echinochloa colonum, junglerice); experiment: Pre-emergence soil-applied mixtures, greenhouse; format: in vivo, Echinochloa colonum (L.) Link
From the text: as §1, §2, §3, §4
For treatments comprised of formulated compounds, measured amounts of compounds were placed individually in 25 mL glass vials and diluted in a volume of 1.25% (v/v) Agri-Dex® crop oil concentrate (COC) to obtain 12× stock solutions. […]
as §5

[3] = tested on: CHEAL (Chenopodium album, common lambsquarters); experiment: Postemergence herbicidal activity of mixtures in cereal crops, greenhouse; format: in vivo, Chenopodium album L.
Experimental: Seeds of the desired test plant species were planted in Sun Gro MetroMix® 306 planting mixture, which typically has a pH of 6.0 to 6.8 and an organic matter content of about 30 percent, in plastic pots with a surface area of 103.2 square centimeters (cm^2). When required to ensure good germination and healthy plants, a fungicide treatment and/or other chemical or physical treatment was applied. The plants were grown for 7-36 days in a greenhouse with an approximate 14 hour photoperiod which was maintained at about 18° C. during the day and about 17° C. during the night. Nutrients and water were added on a regular basis and supplemental lighting was provided with overhead metal halide 1000-Watt lamps as necessary. The plants were employed for testing when they reached the second or third true leaf stage.
Treatments consisted of the benzyl ester of 4-amino-3-chloro-5-fluoro-6-(4-chloro-2-fluoro-3-methoxy-phenyl)pyridine-2-carboxylic acid (Compound A), formulated as an SC, a second cereal herbicide alone and then both in combination.
Other herbicidal components were applied on an active ingredient basis and included PSII-inhibiting herbicides.
Measured aliquots of benzyl ester of 4-amino-3-chloro-5-fluoro-6-(4-chloro-2-fluoro-3-methoxy-phenyl)pyridine-2-carboxylic acid (Compound A) were placed in 25 milliliter (mL) glass vials and diluted in a volume of 1.25% (v/v) Agri-Dex® crop oil concentrate to obtain stock solutions. Compound requirements are based upon a 12 mL application volume at a rate of 187 liters per hectare (L/ha). Spray solutions of the second cereal herbicide and experimental compound mixtures were prepared by adding the stock solutions to the appropriate amount of dilution solution to form 12 mL spray solution with active ingredients in two- and three-way combinations. Formulated compounds were applied to the plant material with an overhead Mandel track sprayer equipped with an 8002E nozzle calibrated to deliver 187 L/ha over an application area of 0.503 square meters (m^2) at a spray height of 18 inches (46 cm) above average plant canopy. Control plants were sprayed in the same manner with the solvent blank.
The treated plants and control plants were placed in a greenhouse as described above and watered by sub-irrigation to prevent wash-off of the test compounds. After 20-22 days, the condition of the test plants as compared with that of the control plants was determined visually and scored on a scale of 0 to 100 percent where 0 corresponds to no injury and 100 corresponds to complete kill.
Colby's equation was used to determine the herbicidal effects expected from the mixtures (Colby, S. R. 1967. Calculation of the synergistic and antagonistic response of herbicide combinations. Weeds 15:20-22). […]

[4] = Compound A Benzyl Ester 16 g ae/ha
[5] = Compound A Benzyl Ester 32 g ae/ha

Structure (SMILES): COc1c(Cl)ccc(-c2nc(C(=O)OCc3ccccc3)c(Cl)c(N)c2F)c1F [Compound A Benzyl Ester, benzyl ester of 4-amino-3-chloro-5-fluoro-6-(4-chloro-2-fluoro-3-methoxy-phenyl)pyridine-2-carboxylic acid]
- Visual Weed Control (%)-28 DAA ECHCG Obs [1, 4]: 0%
- Visual Weed Control (%)-28 DAA ECHCG Obs [1, 5]: 0%
- Visual Weed Control (%)-29 DAA ECHCO Obs [2, 4]: 0%
- Visual Weed Control (%)-29 DAA ECHCO Obs [2, 5]: 5%
- Visual Weed Control (%)-21 DAA CHEAL Obs ([3]; Compound A Benzyl Ester 2.5 g ai/ha): 50%
- Visual Weed Control (%)-21 DAA CHEAL Obs ([3]; Compound A Benzyl Ester 5 g ai/ha): 58%
